A short description of data set [1]: Metabolite profiling of urine and feces (% of dose excreted). The settings on record: for % of dose excreted, Feces: pooled feces 0–96 h; for % of dose excreted, Feces / % of dose excreted, Urine: radiochromatography; for % of dose excreted, Urine: pooled urine 0–72 h. The class given is in vivo, human. The method, then: For each subject, urine samples were pooled using an equal percentage by volume of the 0–6, 6–12, 12–24, 24–48 and 48–72 h samples. Pools of the 0–6, 6–12, 12–24, 24–48 and 48-72 h collections were also prepared across subjects and analyzed for metabolite profiling. Samples were mixed and centrifuged prior to the supernatants being transferred to fresh tubes for metabolite profiling analysis.
For each subject, fecal homogenates for metabolite profiling were pooled using an equal percentage by weight of the 0–24, 24–48, 48–72 and 72–96 h samples. Pools of the 0–24, 24-48, 48–72 and 72–96 h collections were also prepared across subjects and analyzed for metabolite profiling. An aliquot of each pool was extracted with acetonitrile; samples were mixed and centrifuged. The supernatant was removed and the pellets re-suspended with 0.1 % formic acid and extracted with acetonitrile. The combined supernatants were evaporated to dryness under a stream of nitrogen and the residue re-suspended in methanol:0.1 % formic acid in water (1:1). Samples were assayed for extraction recovery prior to metabolite profiling. A control fecal homogenate spiked with [^14C]pomalidomide was extracted in a similar manner to determine the extraction efficiency and stability of [^14C]pomalidomide.
HPLC analysis for metabolite profiling (HPLC Method 1) was performed using a Waters 2695 Alliance Separation Module (Waters Corp., Milford, MA) with the autosampler set to 4 °C. [^14C]Pomalidomide and metabolites were separated using an ACE C18 column (150 × 4.6 mm, 3 μm; Advanced Chromatography Technologies, Aberdeen, Scotland) equipped with an ACE C18 guard column (10 × 3 mm, 3 μm). The mobile phases used were 25 mM ammonium acetate in water: pH 5.5 with formic acid (mobile phase A) and methanol (mobile phase B). The column temperature was 30 °C, and the flow rate was 0.7 mL/min. The linear gradient was delivered as follows: 0–2 min 100 % A; 2–38 min to 64 % A; 38–44 min to 0 % A; 44–48 min hold at 0 % A; return to initial conditions over 2 min.
Radioactivity profiles for plasma and excreta were determined by collecting the column eluate into 96-well Deepwell LumaPlates™ at a rate of 0.25 min/fraction. The plates were dried and the radioactivity in each well determined using a PerkinElmer TopCount® NXT™ Microplate Scintillation Counter. HPLC radiochromatograms were reconstructed using LC-ARC data handling software.

A further data set concerns the target T1, CYP1A2 (Homo sapiens, UniProt P05177).
T1 construct: purchased Cypex Ltd (Scotland, UK)
T1 sequence (P05177 1-516): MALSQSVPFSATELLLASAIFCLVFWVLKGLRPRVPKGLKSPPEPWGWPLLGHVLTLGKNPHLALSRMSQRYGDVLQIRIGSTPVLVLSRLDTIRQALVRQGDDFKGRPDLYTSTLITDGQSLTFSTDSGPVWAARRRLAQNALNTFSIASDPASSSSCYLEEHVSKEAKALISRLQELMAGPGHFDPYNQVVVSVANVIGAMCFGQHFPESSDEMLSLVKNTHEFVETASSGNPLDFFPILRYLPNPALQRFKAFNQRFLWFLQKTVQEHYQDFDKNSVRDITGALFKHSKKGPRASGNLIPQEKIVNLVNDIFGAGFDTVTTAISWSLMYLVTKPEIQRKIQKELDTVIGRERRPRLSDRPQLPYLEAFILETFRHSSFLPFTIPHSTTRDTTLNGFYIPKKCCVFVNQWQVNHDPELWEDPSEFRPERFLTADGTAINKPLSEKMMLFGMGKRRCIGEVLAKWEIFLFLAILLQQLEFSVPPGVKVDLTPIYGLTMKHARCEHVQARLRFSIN
Briefly: In vitro CYP phenotyping (M17 formation from [14C]pomalidomide). The class given is in vitro ADME. On the procedure: (§1) The CYP enzymes responsible for the formation of the hydroxy pomalidomide metabolites were investigated using 10 recombinant human CYP (rCYP) enzymes (CYP1A2, CYP2A6, CYP2B6, CYP2C8, CYP2C9, CYP2C19, CYP2D6, CYP2E1, CYP3A4 and CYP3A5) at 100 pmol/mL. Incubations were prepared using [^14C]pomalidomide (1 μM) in 0.1 M potassium phosphate buffer (pH 7.4) with 4 mM MgCl2, pre-incubated for 5 min at 37 °C. Reactions were initiated by the addition of 1 mM NADPH and continued for 30 or 60 min. Reactions were quenched with two volumes of ice-cold 0.1 % formic acid in acetonitrile containing [^13C5]pomalidomide as internal standard. The samples were mixed and centrifuged, and a subsample of the supernatant evaporated to dryness. The resulting pellet was reconstituted in 0.1 % formic acid in water and acetonitrile (4:1, v/v) and analyzed using HPLC with radiochromatography and/or LC–MS/MS. The rate of formation of the notable human metabolite M17 was calculated and scaled to human in vivo situation using relative abundance method.

For another data set, the target named is T2, CYP2D6 (Homo sapiens, UniProt P10635).
T2 construct: purchased Cypex Ltd (Scotland, UK)
Described as above. The class given is in vitro ADME. On the procedure:
as §1

Another data set has as its target T3, CYP3A4 (Homo sapiens, UniProt P08684).
T3 construct: purchased Cypex Ltd (Scotland, UK)
The data set is described as above. The class given is in vitro ADME. On the procedure:
as §1

Another data set relates to T cell IL-2 production. The experiment in a line: Enhancement of primary human T cell IL-2 production (anti-CD3 stimulated, 2-day culture). The settings on record: 48 h, anti-CD3 stimulated primary human T cells. The class given is cell-based. On the procedure: Metabolites and hydrolysis products of pomalidomide were tested for pharmacological activity in the following three assay systems: (1) inhibition of MM cell proliferation, (2) enhancement of primary human T cell IL-2 production and (3) inhibition of TNF-α production by lipopolysaccharide (LPS)-stimulated human peripheral blood mononuclear cells (PBMC). For all three assay types, compounds were dissolved in 100 % dimethyl sulfoxide (DMSO) and diluted into complete cell culture medium, consisting of Roswell Park Memorial Institute (RPMI)-1640 plus penicillin, streptomycin and L-glutamine (Mediatech, Manassas, VA). The MM cell proliferation cell culture medium contained 10 % fetal bovine serum, while the primary human cell cultures contained 10 % human AB serum (Invitrogen, Brown Deer, WI). The final DMSO concentration in the cell culture media was 0.25 %.
The human MM cell line OPM-2 was obtained from DSMZ (Braunschweig, Germany), and human MM cell lines U266 B1 and NCI-H929 were obtained from ATCC (Manassas, VA). Inhibition of MM cell proliferation was assessed by the [^3H]-thymidine incorporation assay in a 3-day culture in the presence of compounds in complete medium, as previously described. Primary human T cells were isolated from PBMC by negative selection using the RosetteSep T Cell Enrichment Cocktail (STEMCELL Technologies, Tukwila, WA) according to the manufacturer’s procedures. Costimulation of T cell IL-2 production was measured in a 2-day culture of primary human T cells isolated from healthy donors stimulated with anti-CD3 antibody in the presence of compounds, as previously described. Inhibition of TNF-α production by LPS-stimulated human PBMC was measured in a 1-day culture in the presence of compound, as previously described.

T3 sequence (P08684 whole entry): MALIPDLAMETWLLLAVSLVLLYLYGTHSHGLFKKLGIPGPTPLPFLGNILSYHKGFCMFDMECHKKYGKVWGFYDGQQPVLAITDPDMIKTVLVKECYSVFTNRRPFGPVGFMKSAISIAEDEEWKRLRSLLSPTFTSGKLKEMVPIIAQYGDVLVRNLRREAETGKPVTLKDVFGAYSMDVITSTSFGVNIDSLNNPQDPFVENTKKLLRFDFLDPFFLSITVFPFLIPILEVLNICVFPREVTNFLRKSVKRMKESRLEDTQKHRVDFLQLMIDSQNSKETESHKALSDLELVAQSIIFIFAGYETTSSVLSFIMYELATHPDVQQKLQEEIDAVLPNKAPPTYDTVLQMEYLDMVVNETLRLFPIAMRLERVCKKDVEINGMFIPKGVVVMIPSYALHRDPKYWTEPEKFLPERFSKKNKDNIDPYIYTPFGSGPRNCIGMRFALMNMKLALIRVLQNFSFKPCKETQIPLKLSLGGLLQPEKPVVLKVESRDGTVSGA
T2 sequence (P10635 whole entry): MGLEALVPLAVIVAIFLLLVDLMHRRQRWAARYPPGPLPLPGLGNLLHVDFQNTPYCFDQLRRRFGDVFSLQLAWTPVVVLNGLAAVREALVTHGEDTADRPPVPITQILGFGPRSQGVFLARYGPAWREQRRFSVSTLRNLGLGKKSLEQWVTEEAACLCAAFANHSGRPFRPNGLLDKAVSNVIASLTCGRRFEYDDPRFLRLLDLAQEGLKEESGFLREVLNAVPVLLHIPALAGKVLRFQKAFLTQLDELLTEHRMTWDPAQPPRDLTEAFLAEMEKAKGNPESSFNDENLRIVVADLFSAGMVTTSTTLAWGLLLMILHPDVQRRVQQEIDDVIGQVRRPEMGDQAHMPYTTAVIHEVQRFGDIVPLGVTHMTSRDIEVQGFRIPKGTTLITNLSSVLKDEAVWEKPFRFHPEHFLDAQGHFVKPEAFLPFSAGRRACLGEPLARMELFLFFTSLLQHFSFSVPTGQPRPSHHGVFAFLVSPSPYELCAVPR

What is called EC50 is the concentration at which the effect is half-maximal. Turning to `Nc1cccc2c1C(=O)N(C1CCC(=O)NC1=O)C2=O` (racemic) [Pomalidomide, (RS)-4-amino-2-(2,6-dioxo-piperidin-3-yl)-isoindoline-1,3-dione], the “Percent dose excreted in human urine, Parent” value in data set [1] (pomalidomide, this study) is listed as 2.2%. The “Percent dose excreted in human urine, Total” value in data set [1] (pomalidomide, this study) came to 72.8%. Besides, the “% of dose excreted, Feces” value in data set [1] came out at 7.7%; in data set [1] (listed as pomalidomide), 8%. Besides, in data set [1], the “% of dose excreted, Urine” value is listed as 2.2%. The “dose excreted as unchanged drug (excreta)” value in data set [1] (urine + feces, % of the dose) was 10%. For the same compound, the “relative contribution of isozyme to the hepatic metabolism of pomalidomide” value on CYP1A2 (CYP1A2, scaled by relative abundance in human liver) was determined as 54%; at CYP2D6 (CYP2D6, scaled by relative abundance in human liver) it was 4%; on CYP3A4 (CYP3A4, scaled by relative abundance in human liver) it was 30%. In the data set on T cell IL-2 production, the EC50 came out at 22 nM.

On to `Nc1c(O)ccc2c1C(=O)N(C1CCC(=O)NC1=O)C2=O` (stereo not shown) [Metabolite M17, 5-hydroxy pomalidomide], for which the “% of dose excreted, Feces” value in data set [1] came out at 2.8%. For the same compound, the “% of dose excreted, Urine” value in data set [1] is reported as 3.2%. The “rate of M17 formation” value at CYP1A2 (rCYP1A2, [14C]pomalidomide 1 μM, 1-h incubation, based on peak area ratios, estimated) is 0.0027 pmol/min/pmol P450; on CYP2D6 (rCYP2D6, [14C]pomalidomide 1 μM, 1-h incubation, based on peak area ratios, estimated), 0.0011 pmol/min/pmol P450; at CYP3A4 (rCYP3A4, [14C]pomalidomide 1 μM, 1-h incubation, based on peak area ratios, estimated), 0.0008 pmol/min/pmol P450. For the same compound, the EC50 with T cell IL-2 production is greater than 10000 nM.

The record behind these values is paper PMC3556473, “Absorption, metabolism and excretion of [^14C]pomalidomide in humans following oral administration” (Cancer Chemotherapy and Pharmacology, 2012).
